Laboratory results published in the supplement of paper PMC10307832.

Assays:
Assay in all cases: relative viability (nuclei count vs DMSO), 5 days (fraction); higher = more cells survive
[1] = compound: COC1=CC=C(C=C1)CN2C=CC3=C2C=C(C=C3)C(=O)NO + Nc1ncn([C@H]2C[C@H](O)[C@@H](CO)O2)c(=O)n1 [Decitabine] (partner 2 µM)
Procedure, shortened: (§1)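 Lung cancer cell lines were seeded in 1536-well plates and dosed by pin tool the next day, with either a single drug or a fixed anchor-drug dose combined with five library-drug doses (not always all listed) spaced in √10 steps. Five days later, one step fixed the cells and stained their nuclei (final 0.05% Triton X-100, 1% formaldehyde, 1 ug/ml Hoechst), and nuclei were counted on 4× images. Relative viability is the nuclei count in treated wells divided by the count in vehicle wells, and each value is the median of duplicate plates.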

[2] = compound: COC1=CC=C(C=C1)CN2C=CC3=C2C=C(C=C3)C(=O)NO + CS(=O)(=O)N1CCN(Cc2cc3nc(-c4cccc5[nH]ncc45)nc(N4CCOCC4)c3s2)CC1 [Pictilisib] (partner 1 µM)
Procedure, shortened: as §1

Veliparib + AZD7762 = compound: C[C@]1(c2nc3c(C(N)=O)cccc3[nH]2)CCCN1 [Veliparib] + NC(=O)Nc1cc(-c2cccc(F)c2)sc1C(=O)N[C@H]1CCCNC1 [AZD7762] (partner 0.2 µM)
Procedure, shortened: as §1

Veliparib + Trametinib = compound: C[C@]1(c2nc3c(C(N)=O)cccc3[nH]2)CCCN1 [Veliparib] + CC(=O)Nc1cccc(-n2c(=O)n(C3CC3)c(=O)c3c(Nc4ccc(I)cc4F)n(C)c(=O)c(C)c32)c1 [Trametinib] (partner 0.02 µM)
Procedure, shortened: as §1

Cell Line | relative viability ([1]; first compound 0.08 µM) | relative viability ([1]; first compound 0.8 µM) | relative viability ([1]; first compound 2.53 µM) | relative viability ([1]; first compound 8 µM) | relative viability ([2]; first compound 0.08 µM) | relative viability ([2]; first compound 0.253 µM) | relative viability ([2]; first compound 0.8 µM) | relative viability ([2]; first compound 2.53 µM) | relative viability ([2]; first compound 8 µM) | relative viability (Veliparib + AZD7762; first compound 0.02 µM) | relative viability (Veliparib + AZD7762; first compound 0.2 µM) | relative viability (Veliparib + AZD7762; first compound 0.6325 µM) | relative viability (Veliparib + AZD7762; first compound 2 µM) | relative viability (Veliparib + Trametinib; first compound 0.02 µM) | relative viability (Veliparib + Trametinib; first compound 0.2 µM) | relative viability (Veliparib + Trametinib; first compound 0.6325 µM) | relative viability (Veliparib + Trametinib; first compound 2 µM) | relative viability ([1]; first compound 0.253 µM) | relative viability (Veliparib + AZD7762; first compound 0.06325 µM) | relative viability (Veliparib + Trametinib; first compound 0.06325 µM)
PC-3 [JPC-3] | 0.764 | 0.775 | 0.833 | 0.832 | 0.781 | 0.713 | 0.747 | 0.805 | 0.718 | 0.82 | 0.875 | 0.898 | 0.773 | 0.596 | 0.749 | 0.685 | 0.682 |  |  | 
PC-14 | 0.212 | 0.198 | 0.223 | 0.244 | 0.388 | 0.629 | 0.766 | 0.688 | 0.699 | 0.357 | 0.335 | 0.385 | 0.327 |  | 0.699 | 0.686 | 0.834 | 0.259 | 0.313 | 0.664
RERF-LC-KJ | 0.74 | 0.645 | 0.738 | 0.599 | 0.468 | 0.571 | 0.511 | 0.608 | 0.472 | 1.07 | 0.999 | 0.933 | 1.03 | 0.938 | 0.899 | 0.845 | 0.858 | 0.675 | 0.896 | 0.822
